Measurements from paper PMC10994559 (PLOS Neglected Tropical Diseases, 2024).
“Also recorded” adds a separate entry of the source.

How the values were obtained:
[1] = test system: L. infantum promastigotes; assay: L. infantum promastigote viability, resazurin reduction; assay type: cell-based, Leishmania infantum; settings: Leishmania infantum, 72 h; for viability at 2.5 µM: read-out: Residual viability, L. infantum promastigote (2.5 µM); for viability at 25 µM: read-out: Residual viability, L. infantum promastigote (25 µM)
Description: The infectivity of the parasites was boosted by passaging in Balb/c mice and culturing the infected lymph nodes after six weeks. L. infantum (MHOM / BR / 76 / M4192) parasite was passaged in the same media formulation with 0.5% urine.

[2] = test system: T. brucei brucei BSF; assay: T. brucei BSF viability, resazurin reduction; assay type: cell-based, Trypanosoma brucei brucei; settings: Trypanosoma brucei
[3] = test system: T. cruzi trypomastigotes; assay: T. cruzi viability, resazurin reduction; assay type: cell-based, Trypanosoma cruzi; settings: 72 h; for viability at 2.5 µM / viability at 25 µM: Trypanosoma cruzi; for viability at 2.5 µM: read-out: Residual viability, T.cruzi (2.5 µM), 2.5 µM, 72 h; for viability at 25 µM: read-out: Residual viability, T.cruzi (25 µM), 25 µM, 72 h
In short: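 Y-strain trypomastigotes kept in supplemented liver infusion tryptose broth with 10% FCS, pH 7.2, at 28°C. Viability by fluorescence resazurin reduction; single-point screen at 2.5 μM, then 18-concentration dose response. Amphotericin B as control drug.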

[4] = test system: Murine macrophage cells (J774); assay: Cytotoxicity assay J774, resazurin reduction; assay type: cell-based; settings: cytotoxicity, 72 h
In short: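 J774 and HepG2 cells were seeded at 0.5x10^5 cell/well and exposed to serially diluted compounds for 72 h at 37°C, 5% CO2. Viability was read by fluorescence resazurin reduction (λEx 550 nm, λEm 590 nm).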

[5] = test system: T. brucei 2T1 RNAi lines; assay: Dose response after targeted stem-loop RNAi knockdown; assay type: cell-based, Trypanosoma brucei
Protocol: Selected genes with the high reads were validated by individual RNAi targeting. Briefly, gene-specific RNAi fragments of 400–600 bp were amplified with PCR primers designed with RNAit tool (S1 Table) and cloned into pRPa^iSL to generate stem-loop, ‘hairpin’ dsRNA to induce RNAi knockdown. The AscI linearized plasmid was transfected into 2T1 cells and positive colonies were selected with hygromycin (2.5 μg/ml). Positive, puromycin sensitive clones were analysed by PHT-39 dose response analysis after 24 h tetracycline induction and compared to uninduced controls and parental lines.

[6] = test system: T. brucei BSF proteome; assay: Label-free LC-MS/MS proteomics after PHT-39 exposure; assay type: cell-based, Trypanosoma brucei
Protocol: 4 x 10^7 cells were harvested by centrifugation (1000*g) after 48 h from cultures in logarithmic growth phase and washed thrice with PBS. Samples were subjected to lysis, tryptic digest and reductive alkylation using standard procedures. LC-MS/MS was performed by the OMICS Proteomics Facility at Charles University Biocev on an UltiMate 3000 RSLCnano System (Thermo Fisher Scientific) coupled to a Orbitrap Fusion mass spectrometer (Thermo Fisher Scientific). Mass spectra were analyzed by label-free quantification using MaxQuant version 2.1.0.0 [30] searching the T. brucei brucei 927 annotated protein database (release 57) from TriTrypDB [31]. Minimum peptide length was set at seven amino acids and false discovery rates of 0.01 were calculated at the levels of peptides, proteins, and modification sites based on the number of hits against the reversed sequence database. When the identified peptide sequence set of one protein contained the peptide set of another protein, these two proteins were assigned to the same protein group. P-values were calculated, applying t-test–based statistics using Perseus. Proteomics data have been deposited to the ProteomeXchange Consortium via the PRIDE partner repository with the data set identifier PXD043204.

[7] = test system: T. brucei BSF; assay: Cell cycle (nuclei/kinetoplast count, DAPI) after PHT-39 treatment; assay type: cell-based, Trypanosoma brucei; settings: 1 x EC50, 24 h
Protocol: 10^6 cells were harvested by centrifugation (1000*g) after 24 h from cultures in logarithmic growth phase and washed once with serum-free HMI-9. After fixation in 2% formaldehyde cell were applied to a glass slide and mounted with Vectashield Antifade mounting medium with 4′,6-diamidino2-phenylindole (DAPI) for fluorescence microscopy imaging on a Leica TCS SP8 WLL SMD-FLIM inverted confocal microscope. The number of nuclei (N) and kinetoplasts (K) per cell were then counted for 100 cells in each respective replicate (n = 3), allowing determination of cell cycle stage.

[8] = test system: Plasmodium berghei ANKA; set-up: method as in PMID 35749989; settings: cited from earlier work
[9] = 24 h tetracycline induction vs uninduced

CC[C@@H](C)[C@H](c1nc2ccccc2n1Cc1cn(-c2ccc(C(F)(F)F)cc2)nn1)N1C(=O)c2ccccc2C1=O [PHT-39]
viability at 2.5 µM [1]: 58.8 ± 1.22% | viability at 25 µM [1]: 7.71 ± 1.03% | viability at 2.5 µM ([2]; 72 h, read-out: Residual viability, T.brucei (2.5 µM), BSF, 2.5 µM, 72 h): 64.9 ± 7.25% | viability at 25 µM ([2]; 72 h, read-out: Residual viability, T.brucei (25 µM), BSF, 25 µM, 72 h): 2.85 ± 2.88% | EC50 ([2]; read-out: EC50 T. brucei BSF, dose response, triplicate, ± SD (Table 2) / ± SE (S3 Table)): 3.9 ± 1.7 µM | viability at 2.5 µM [3]: 57.6 ± 1.04% | viability at 25 µM [3]: 31.5 ± 1.51% | EC50 ([4]; Mus musculus, J774, 72 h): > 16 µM | Sensitivity shift after RNAi of HSP104 homolog (ClpB1) Tb927.2.5980 [5]: did not elicit a significant PHT-39 sensitivity shift; also recorded: did not determine a significant sensitivity shift | Sensitivity shift after RNAi of nicotinamidase paralogs Tb927.9.3970 and Tb927.9.4040 [5]: did not elicit a significant PHT-39 sensitivity shift; also recorded: did not determine a significant sensitivity shift | EC50 shift after RNAi of miltefosine transporter Tb927.11.3350 [5, 9]: mild but significant EC50 increase | Sensitivity shift after knockdown of ESAG5 [5, 9]: very modest but significant sensitivity shift | Abundance change FAZ localized protein Tb927.1.4280 ([6]; 3.9 μM (1× EC50), 48 h): 0.62 fold | Abundance change Hsp104 homolog Tb927.2.5980 ([6]; 3.9 μM (1× EC50), 48 h): 1.4 fold | Abundance change PIP39 (Tb927.9.6090) ([6]; 3.9 μM (1× EC50), 48 h): 1.6 fold | Abundance change axonemal protein SAXO (Tb927.8.6240) ([6]; 3.9 μM (1× EC50), 48 h): 0.65 fold | PHT-39 ratio (protein abundance) ([6]; protein 2-oxoglutarate dehydrogenase E1 component, Tb927.11.1450): 1.73 | PHT-39 ratio (protein abundance) ([6]; protein 2-oxoglutarate dehydrogenase E1 component, Tb927.11.9980): 1.93 | PHT-39 ratio (protein abundance) ([6]; protein ACS1, Tb927.7.6180): - ∞ | PHT-39 ratio (protein abundance) ([6]; protein Aconitase, Tb927.10.14000): 1.39 | PHT-39 ratio (protein abundance) ([6]; protein CIF1 (TOEFAZ1), Tb927.11.15800): 0.46 | PHT-39 ratio (protein abundance) ([6]; protein CIF3, Tb927.10.13100): - ∞ | PHT-39 ratio (protein abundance) ([6]; protein CIF4, Tb927.10.8240): 0.88 | PHT-39 ratio (protein abundance) ([6]; protein F1 alpha, Tb927.7.7430, Tb927.7.7420): 1.31 | PHT-39 ratio (protein abundance) ([6]; protein F1 beta, Tb927.3.1380): 1.33 | PHT-39 ratio (protein abundance) ([6]; protein F1 gamma, Tb927.10.180): 1.23 | PHT-39 ratio (protein abundance) ([6]; protein F1 p18, Tb927.5.1710): 1.90 | PHT-39 ratio (protein abundance) ([6]; protein FPRC, Tb927.10.6360): 0.72 | PHT-39 ratio (protein abundance) ([6]; protein Fo 8, Tb927.4.3450): ∞ | PHT-39 ratio (protein abundance) ([6]; protein Fo ATBTB1, Tb927.10.520): 1.48 | PHT-39 ratio (protein abundance) ([6]; protein Fo ATBTB3, Tb927.11.6250): 1.53 | PHT-39 ratio (protein abundance) ([6]; protein Fo ATBTB4, Tb927.10.9830): 1.36 | PHT-39 ratio (protein abundance) ([6]; protein Fo ATBTB6, Tb927.11.1270): 1.40 | PHT-39 ratio (protein abundance) ([6]; protein Fo ATBTB12, Tb927.5.3090): 3.78 | PHT-39 ratio (protein abundance) ([6]; protein Fo OSCP, Tb927.10.8030): 2.93 | PHT-39 ratio (protein abundance) ([6]; protein Fo d, Tb927.5.2930): 1.35 | PHT-39 ratio (protein abundance) ([6]; protein Fo e, Tb927.11.600): 1.09 | PHT-39 ratio (protein abundance) ([6]; protein Fo f, Tb927.3.1690): 1.36 | PHT-39 ratio (protein abundance) ([6]; protein Fo i/j, Tb927.3.2880): 1.66 | PHT-39 ratio (protein abundance) ([6]; protein Fo k, Tb927.7.840): 3.17 | PHT-39 ratio (protein abundance) ([6]; protein Glutamate dehydrogenase, Tb927.9.5900): 1.53 | PHT-39 ratio (protein abundance) ([6]; protein PIP39, Tb927.9.6090): 1.62 | PHT-39 ratio (protein abundance) ([6]; protein PPDK, Tb927.11.6280): ∞ | PHT-39 ratio (protein abundance) ([6]; protein Proline dehydrogenase, Tb927.7.210): 1.66 | PHT-39 ratio (protein abundance) ([6]; protein SAXO, Tb927.8.6240): 0.65 | PHT-39 ratio (protein abundance) ([6]; protein Tb927.1.4280): 0.63 | Difference (LFQ intensity treated vs untreated) ([6]; protein Tb927.10.4770, phosphatidylinositol-4-phosphate 5-kinase, putative): 2.042 | Difference (LFQ intensity treated vs untreated) ([6]; protein Tb927.4.3450, Mitochondrial ATP synthase subunit, putative): 5.909 | Difference (LFQ intensity treated vs untreated) ([6]; protein Tb927.6.980;Tb927.6.970;Tb927.6.960;Tb927.6.1020;Tb927.6.1010, cysteine peptidase, Cathepsin L-like): 5.36 | Difference (LFQ intensity treated vs untreated) ([6]; protein Tb927.7.2660, zinc finger protein family member, putative): 3.448 | Difference (LFQ intensity treated vs untreated) ([6]; protein Tb927.9.12700, phospholipase A1, putative): 3.03 | PHT-39 ratio (protein abundance) ([6]; protein citrate synthase, Tb927.10.13430): 1.66 | PHT-39 ratio (protein abundance) ([6]; protein isocitrate dehydrogenase, Tb927.8.3690): 1.46 | PHT-39 ratio (protein abundance) ([6]; protein mitochondrial malate dehydrogenase, Tb927.10.2560): 1.32 | PHT-39 ratio (protein abundance) ([6]; protein succinyl-CoA ligase beta-chain, Tb927.10.7410): 1.79 | PHT-39 ratio (protein abundance) ([6]; protein succinyl-CoA synthetase alpha subunit, Tb927.3.2230): 1.72 | Proportion of 2K1N cells, decreased to [7]: approximately 57% | Proportion of 2K2N cells, decreased to [7]: approximately 28% | Parasitemia and host survival, P. berghei ANKA infection model [8]: considerable decrease in parasitemia and significantly extended host survival

C[C@@H]1[C@H](O)[C@@H](C)/C=C/C=C/C=C/C=C/C=C/C=C/C=C/[C@H](O[C@@H]2O[C@H](C)[C@@H](O)[C@H](N)[C@@H]2O)C[C@@H]2O[C@](O)(C[C@@H](O)C[C@@H](O)[C@H](O)CC[C@@H](O)C[C@@H](O)CC(=O)O[C@H]1C)C[C@H](O)[C@H]2C(=O)O [AmB, amphotericin B, reference compound]
viability at 2.5 µM [1]: 2.55 ± 0.17% | viability at 25 µM [1]: 5.4 ± 0.73% | Residual viability, T.cruzi (25 µM) ([3]; 25 µM): 7.37±1.09% | viability at 2.5 µM [3]: 8.07 ± 0.38% | viability at 25 µM [3]: 7.4% | EC50 ([4]; Mus musculus, J774, 72 h): > 10 µM | EC50 [4]: > 16 µM
